Reference: patent publication US20260048066A1, “TREATMENT OF NEURODEGENERATIVE DISORDERS UTILISING METHYLTHIONINIUM (MT)-CONTAINING COMPOUNDS” (WISTA LABORATORIES LTD, priority 2022, published 2026)
Where two headings read alike, the source gives them in different places. Blank lines part the entries; values can stand above or below the compound they belong to.

Experiments:
[1] = LUCIDITY trial: plasma HMT/MT levels; assay type: in vivo; details: human, oral
Protocol: At Visits 2, 3, 7 and 10, timed morning blood samples are collected for determination of plasma level of the drug. Samples are collected prior to dosing and then at 1, 2, and 4 hours post dose. A single blood sample for apolipoprotein E (ApoE) is obtained from participants who provide informed consent at any time after eligibility determination and prior to Visit 7. Blood may also be analyzed for other biomarkers for possible future research related to determination of potential biomarker predictors or surrogates for treatment response, to be described in a separate protocol.
All patients received 16 mg/day (i.e. 8 mg twice daily) from Visit 7 onwards.
The steady-state plasma concentrations (Visit 4. 1 h post-dose) in each dosing arm was investigated further. Patients were grouped based on plasma concentration.

[2] = test system: participants with severity ranging from mild cognitive impairment (MCI) to moderate AD; assay: LUCIDITY Phase 3 trial: cognitive (ADAS-cog), functional (ADCS-ADL) and brain atrophy outcomes; assay type: in vivo, human
Text: The LUCIDITY trial (NCT03446001; EudraCT: 2017-003558-17) is a Phase 3, randomized, double-blind, placebo-controlled, outpatient trial to evaluate the safety, efficacy, and tolerability of hydromethylthionine mesylate monotherapy in participants with severity ranging from mild cognitive impairment (MCI) to moderate AD. The initial 12-month blinded period is followed by a 12-month, open-label extension period to provide comparative, delayed-start data. There are 76 study sites located in Canada, France, Italy, Poland, Spain, United Kingdom and United States. The protocol was approved by an institutional review board or independent ethics committee at each site.
Following screening, eligible participants are randomized at baseline in a 4:1:4 ratio to receive hydromethylthionine mesylate 16 mg/day, hydromethylthionine mesylate 8 mg/day, or placebo. Following completion of the 52-week double-blind treatment period, all participants continue open-label treatment with hydromethylthionine mesylate 16 mg/day for a further 52 weeks. Participants who were randomized to start on HMTM are considered early-starters; patients who begin on placebo and switch to HMTM at week 52 are considered delayed starters. Unlike a traditional delayed start design, in which participants remain blinded to treatment throughout the trial, treatment during weeks 52 to 104 is open-label, although participants and the site study staff remain blinded to prior treatment assignment. Randomization was stratified by severity (three levels: MMSE 16-19, 20-25, or 26-27, with a target ratio of approximately 2:3:1), prior use of symptomatic treatments (AChEls and/or memantine-two levels: prior use or none), and region (two levels: Canada/USA or UK/Europe). To achieve this target, enrolment was monitored and controlled at the site level for high recruiting sites and capped as needed at the study level. Patients who dropped out after randomization were not replaced, but participants were encouraged to continue with study visits off treatment until the scheduled completion of the double-blind treatment period (Visit 7). Only participants who continued in the study and receive hydromethylthionine mesylate treatment up to and including the last visit (Visit 10) without the addition of concomitant AChEls and/or memantine were eligible for continued treatment in a subsequent expanded access program.
The active and placebo treatment formulations are tablets that look visually the same. Hydromethylthionine mesylate can cause variable urinary discoloration. Therefore, to maintain blinding, the placebo group receives tablets containing a urinary discolourant (MTC, 4 mg) included among blank tablets containing only excipients on a varying schedule with an average frequency of 2/week.
Dosing frequency of 4 mg MTC tablets was on a varying schedule, such that each patient received a 4 mg tablet among the blanks on average twice per week. All subjects (on all arms) received 4 tablets at two times of day. This allowed for 2×4 mg followed by 2×4 mg to give 16 mg/day dose. 4 tablets were also given daily for placebo (2×placebo then 2×placebo) with 4 mg MTC tablets inserted at a rate of 2 per week i.e. 2 MTC tablets out of 28 per week, with remainder being true placebo.
Participants had to be aged less than 90 years and meet the diagnostic criteria for probable AD or MCI-AD and must not have been taking an AChEl or memantine, for at least 60 days at Baseline. They must have been community-dwelling, have a mini mental state exam (MMSE) score of 16-27, and with functional impairment as evidenced by a Clinical Dementia Dating (CDR) stage of 0.5 to 2 at screening. […] All patients must also have at least one study partner, consenting to their own participation; study partners can be changed so long as they have sufficient contact to complete outcome and safety assessments meaningfully and verify compliance with trial treatment. […]

[3] = test system: participants with severity ranging from mild cognitive impairment (MCI) to moderate AD; assay: LUCIDITY trial: safety and tolerability; assay type: in vivo, human
Protocol: All safety assessments are performed during Screening to assess subject eligibility, by an independent qualified medical assessor not involved in efficacy assessments. For the enrolled participants, safety assessments are undertaken at Baseline and at each clinic visit after 4, 13, 26, 39, and 52 weeks during the double-blind treatment period, as well as after 56 (telephone assessment, or on-site in UK), 78, and 104 weeks in the open-label, delayed-start phase; when needed to follow up on a treatment-emergent adverse event (AE); and upon early termination (Table 1). Patients are followed as needed for the resolution or stabilization of any AE, consistent with the investigator's medical judgement.

[4] = Completed hydromethylthionine mesylate Phase 3 studies: estimated treatment effect; assay type: in vivo, human
Protocol: Sample size estimations to achieve 90% power (two-sided alpha=0.05) to detect a difference between hydromethylthionine mesylate 16 mg/day and placebo, the primary treatment group comparison in the double-blind treatment period, have been performed for the two co-primary clinical end points, assuming a withdrawal rate of 20% to 25%. The study sample size of approximately 450 is based on the ADCS-ADL23, which has a larger standard deviation (SD) than ADAS-Cog11. Based on an estimated decline in ADCS-ADL23 over 52 weeks in the control arm of 7.7 units with an estimated SD of 8.5 units, the study will have >90% power to detect a reduction in decline of 3.4 units or more. The 3.4-unit effect size is derived from an estimated treatment effect of 5.0±1.6 (mean±standard error) units in the completed hydromethylthionine mesylate studies. Based on an estimated decline of 6.5 units in ADAS-Cog11 over 52 weeks with an estimated SD of 5.9 units, 200 participants per treatment arm provide >90% power to detect a reduction in decline of 2.6 units or more, provided by a conservative value of the estimated treatment effect based on pooled completed Phase 3 studies of −5.2±1.3 (mean±standard error) units in completed hydromethylthionine mesylate studies.

[5] = test system: red cells; details: in vivo, administered intravenously; cited from earlier work
[6] = LUCIDITY trial: plasma HMT/MT levels; assay type: in vivo, human; details: MTC 4 mg twice weekly; after 12 months of treatment
[7] = 16 mg/day, whole study population, MCI to moderate disease

- concentration at 1 h ([1]; all dosing arms pooled, steady-state plasma, 1 h post-dose, read-out: Mean value HMT conc): 0.2 ng/mL
- concentration at 1 h ([1]; all dosing arms pooled, sub-group BLLOQ (values set to zero), 1 h post-dose, read-out: Mean value HMT conc): 0 ng/mL
- concentration at 1 h ([1]; all dosing arms pooled, sub-group high, 1 h post-dose, read-out: Mean value HMT conc): 0.41 ng/mL
- concentration at 1 h ([1]; all dosing arms pooled, sub-group mid, 1 h post-dose, read-out: Mean value HMT conc): 0.04 ng/mL
- concentration at 1 h ([1]; all dosing arms pooled, sub-group ultralow, 1 h post-dose, read-out: Mean value HMT conc): 0.01 ng/mL
SMILES: CN(C)c1ccc2c(c1)Sc1cc(N(C)C)ccc1N2 [HMT, N3,N3,N7,N7-tetramethyl-10H-phenothiazine-3,7-diamine]

- concentration at 1 h ([1]; 8 mg/day, 8 mg/day LMTM arm, sub-group BLLOQ (set to zero), steady state 1 h post-dose, read-out: Mean HMT conc): 0 ng/mL
- concentration at 1 h ([1]; 8 mg/day, 8 mg/day LMTM arm, sub-group high, steady state 1 h post-dose, read-out: Mean HMT conc): 0.26 ng/mL
- concentration at 1 h ([1]; 8 mg/day, 8 mg/day LMTM arm, sub-group mid, steady state 1 h post-dose, read-out: Mean HMT conc): 0.05 ng/mL
- concentration at 1 h ([1]; 16 mg/day, 16 mg LMTM/day group, week 4, 1h post dose, read-out: overall mean plasma concentration): 0.5 ng/mL
- concentration at 1 h ([1]; 16 mg/day, 16 mg/day LMTM arm, sub-group BLLOQ (set to zero), steady state 1 h post-dose, read-out: Mean HMT conc): 0 ng/mL
- concentration at 1 h ([1]; 16 mg/day, 16 mg/day LMTM arm, sub-group high, steady state 1 h post-dose, read-out: Mean HMT conc): 0.5 ng/mL
- concentration at 1 h ([1]; 16 mg/day, 16 mg/day LMTM arm, sub-group mid, steady state 1 h post-dose, read-out: Mean HMT conc): 0.04 ng/mL
- concentration at 1 h ([1]; 16 mg/day, 16 mg/day LMTM arm, sub-group ultralow, steady state 1 h post-dose, read-out: Mean HMT conc): 0.02 ng/mL
SMILES: CN(C)c1ccc2c(c1)Sc1cc(N(C)C)ccc1N2.CS(=O)(=O)O.CS(=O)(=O)O [LMTM, N,N,N′,N′-tetramethyl-10H-phenothiazine-3,7-diaminium bis(hydromethanesulfonate)]
- disease progression by change in cognitive function (p=0.0008) and brain atrophy (p<0.0001) against matched ADNI subjects ([2]; 16 mg/day): Statistically significant reductions in disease progression
- decline in cognitive and functional measures ([2]; 16 mg/day LMTM as monotherapy): zero or minimal decline
- decline on ADAS-cog11 over the first 12 months [2, 7]: 1.3 ADAS-cog11 units
- decline on ADCS-ADL23 over the first 12 months [2, 7]: −1.0 ADCS-ADL23 units
- cognitive improvement over baseline on the ADAS-cog13 scale ([2]; 105 patients with MCI, 16 mg/day, at 6 months (p=0.0002), 12 months (p=0.0391) and 18 months (p=0.0473)): 2 units
- cognitive decline in the first 9 months ([2]; 147 patients with mild/moderate AD, 16 mg/day): 2.5 unit
- cognitive decline over the following 9 months ([2]; 147 patients with mild/moderate AD, 16 mg/day, months 9 to 18): no further decline
- rate of progression of brain atrophy ([2]; MCI participants, HMTM 16 mg/day, versus ADNI MCI subjects (p<0.0001)): significantly less than in ADNI MCI subjects
- mean change on the instrumental activities of daily living subscale of ADCS-ADL ([2]; MCI patients, 16 mg/day, at 6, 12 and 18 months): remained above the pre-treatment baseline
- reduction in functional decline relative to published meta-analysis of placebo decline data ([2]; mild/moderate AD, 16 mg/day, ADCS-ADL): about 75%
- functional decline on the ADCS-ADL scale ([2]; mild/moderate AD, 16 mg/day, at 12 months): −2 units
- functional decline on the ADCS-ADL scale ([2]; mild/moderate AD, 16 mg/day, at 18 months): −3 units
- treatment effects on cognitive and functional decline versus placebo decline data of anti-amyloid trials ([2]; over 18 months): about three-fold larger
- treatment-related serious adverse events and amyloid related imaging abnormalities (ARIA) [3]: no treatment-related serious adverse events or evidence of amyloid related imaging abnormalities (ARIA)
- estimated treatment effect on ADCS-ADL23 (mean±standard error) ([4]; completed hydromethylthionine mesylate studies): 5.0±1.6 units
- estimated treatment effect on ADAS-Cog11 (mean±standard error) ([4]; pooled completed Phase 3 studies): −5.2±1.3 units
- MT uptake into red cells, fold higher compared with MTC [5]: approximately 20 fold

- AD patients with plasma levels above 0.10 ng/ml (Cmax) [6]: 89%
SMILES: CN(C)c1ccc2nc3ccc(N(C)C)cc3[s+]c2c1 [MTC, methylthioninium chloride]
- treatment effect on ADAS-cog compared to expected decline ([2]; control group (4 mg MTC twice weekly), high plasma HMT group, 12 months): -4.73±2.01
- ADAS-cog decline ([2]; control group (4 mg MTC twice weekly), ultra-low plasma HMT cases, 12 months): 3.75±0.79
